# According to patent US12534748B2, “Engineered beta-subunit of tryptophan synthase for production of non-canonical amino acids” (California Institute of Technology, priority 2015, dated 2026):
# Residue numbers refer to the chain shown, from its start.
# Columns and labels:
# [1] = target: T1, Pyrococcus furiosus TrpB variant PfTrpB^2G9 (T292S), SEQ ID NO: 10 (Pyrococcus furiosus, UniProt Q8U093, T292S); assay: Tryptophan formation from L-serine and indole, kinetics of PfTrpB^2G9; format: biochemical
# T1 sequence (Q8U093 with tags, fused parts or gaps T292S): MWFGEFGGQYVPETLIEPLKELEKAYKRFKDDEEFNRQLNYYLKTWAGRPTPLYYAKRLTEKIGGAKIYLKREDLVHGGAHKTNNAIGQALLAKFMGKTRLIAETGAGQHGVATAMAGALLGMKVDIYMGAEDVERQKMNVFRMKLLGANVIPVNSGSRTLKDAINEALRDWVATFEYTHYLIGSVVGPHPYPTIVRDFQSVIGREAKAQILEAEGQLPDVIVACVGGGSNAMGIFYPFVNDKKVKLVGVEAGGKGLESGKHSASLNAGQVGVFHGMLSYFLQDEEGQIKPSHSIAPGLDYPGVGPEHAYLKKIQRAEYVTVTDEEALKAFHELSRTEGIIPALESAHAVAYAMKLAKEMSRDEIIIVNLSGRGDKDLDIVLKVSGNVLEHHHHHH
# Experimental: (§1) Cloning, Expression, and Purification of PfTrpA and PfTrpB. The genes encoding PfTrpB (UNIPROT ID Q8U093) and PfTrpA (UNIPROT ID Q8U094) were obtained as gBlocks and cloned into pET22(b)+ for expression in E. coli BL21 E. cloni EXPRESS cells (Lucigen). Heterologous protein expression of PfTrpA and PfTrpB was performed in Terrific Broth with 100 μg/mL ampicillin (TBamp) and induced with 500 mM IPTG (final concentration 1 mM). PfTrpB was purified via a HisTrap HP column. PfTrpA was purified via a Q HP HiTrap column (flow-through), followed by ammonium sulfate precipitation, and hydrophobic interaction chromatography on a phenyl Sepharose HP HiTrap column (FIG. 3).
# (§2) Kinetics and UV-Vis Spectroscopy.
# [2] = target: T2, Thermotoga maritima TrpB variant TmTrpB^0B2 (P14L, P19G, I69V, L274S, T292S) (Thermotoga maritima, UniProt P50909, I69V/L274S/P14L/P19G/T292S); assay: Tryptophan formation from L-serine and indole, kinetics of TmTrpB^0B2
# T2 sequence (P50909 with tags, fused parts or gaps P14L/P19G/I69V/L274S/T292S): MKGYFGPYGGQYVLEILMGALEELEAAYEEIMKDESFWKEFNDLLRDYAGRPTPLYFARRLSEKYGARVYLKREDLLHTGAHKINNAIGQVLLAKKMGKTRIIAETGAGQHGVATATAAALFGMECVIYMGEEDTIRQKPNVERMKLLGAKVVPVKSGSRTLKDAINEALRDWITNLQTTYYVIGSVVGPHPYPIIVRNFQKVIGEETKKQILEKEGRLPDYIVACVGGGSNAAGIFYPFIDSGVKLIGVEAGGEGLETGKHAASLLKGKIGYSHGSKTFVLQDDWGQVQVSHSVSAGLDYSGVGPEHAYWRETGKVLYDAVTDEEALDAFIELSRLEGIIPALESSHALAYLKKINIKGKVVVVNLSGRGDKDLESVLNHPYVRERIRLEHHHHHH
# From the text: as §2
# Cloning, expression, and purification of the different orthologs.
# The next homolog, TmTrpB, was examined.
# [3] = target: T3, Pyrococcus furiosus TrpB variant PfTrpB^4D11 (E17G, I68V, T292S, F274S, T321A), SEQ ID NO: 16 (Pyrococcus furiosus, UniProt Q8U093, E17G/F274S/I68V/T292S/T321A); assay: Tryptophan formation from L-serine and indole, kinetics of PfTrpB^4D11; format: biochemical; conditions: 75° C.
# T3 sequence (Q8U093 with tags, fused parts or gaps E17G/I68V/F274S/T292S/T321A): T1 sequence (Q8U093 with tags, fused parts or gaps T292S) with E17G, I68V, F274S, T321A
# Experimental: as §1, §2
# PfTrpB^4D11 served as template for a final round of random mutagenesis, for which 1,144 clones were screened.
# [4] = system: Thermotoga maritima TrpB, wild type (literature); conditions: kinetics measured at 80° C., cited from earlier work
# [5] = target: T4, Pyrococcus furiosus TrpB variant M144T N166D (Table 6 prints N166T), SEQ ID NO: 20 (Pyrococcus furiosus, UniProt Q8U093, M144T/N166D); assay: Tryptophan formation from L-serine and indole, kinetics of PfTrpB double mutant
# T4 sequence (Q8U093 with tags, fused parts or gaps M144T/N166D): T1 sequence (Q8U093 with tags, fused parts or gaps T292S) with M144T, N166D, S292T
structure (smiles),measurement,setting,value
c1ccc2[nH]ccc2c1 [indole],kcat,[1]; 75° C.,1.1 s⁻¹
same,increase in kcat,[1]; compared with PfTrpB,3.5 fold
same,Km,"[1]; read-out: KM, indole, 75° C.",14 µM
same,kcat,[2]; 75° C.,0.11 s⁻¹
same,kcat relative to wild-type activity,[2]; of the wild-type activity,10%
same,kcat,[3],2.2 s⁻¹
same,Km,"[3]; read-out: KM, indole",11 µM
same,kcat,[4],4.2 s⁻¹
same,Km,[4]; read-out: KM indole,40 µM
same,kcat,[5]; 75° C.,0.83 s⁻¹
same,kcat increase,[5]; M144T and N166D in PfTrpB,at least 2 fold
